Results from patent US9750742B2, “Small molecular inhibitors of RAD51 recombinase and methods thereof” (Drexel University, priority 2011, dated 2017).
Entries after “also recorded” stand apart in the source; their conditions may differ.

What was measured:
RAD54 = target: T1, RAD54 (Homo sapiens, UniProt Q92698); assay: DNA branch migration assay for RAD54; format: biochemical; conditions: 0 to 200 μM
T1 construct: made in house
T1 sequence (Q92698 1-747): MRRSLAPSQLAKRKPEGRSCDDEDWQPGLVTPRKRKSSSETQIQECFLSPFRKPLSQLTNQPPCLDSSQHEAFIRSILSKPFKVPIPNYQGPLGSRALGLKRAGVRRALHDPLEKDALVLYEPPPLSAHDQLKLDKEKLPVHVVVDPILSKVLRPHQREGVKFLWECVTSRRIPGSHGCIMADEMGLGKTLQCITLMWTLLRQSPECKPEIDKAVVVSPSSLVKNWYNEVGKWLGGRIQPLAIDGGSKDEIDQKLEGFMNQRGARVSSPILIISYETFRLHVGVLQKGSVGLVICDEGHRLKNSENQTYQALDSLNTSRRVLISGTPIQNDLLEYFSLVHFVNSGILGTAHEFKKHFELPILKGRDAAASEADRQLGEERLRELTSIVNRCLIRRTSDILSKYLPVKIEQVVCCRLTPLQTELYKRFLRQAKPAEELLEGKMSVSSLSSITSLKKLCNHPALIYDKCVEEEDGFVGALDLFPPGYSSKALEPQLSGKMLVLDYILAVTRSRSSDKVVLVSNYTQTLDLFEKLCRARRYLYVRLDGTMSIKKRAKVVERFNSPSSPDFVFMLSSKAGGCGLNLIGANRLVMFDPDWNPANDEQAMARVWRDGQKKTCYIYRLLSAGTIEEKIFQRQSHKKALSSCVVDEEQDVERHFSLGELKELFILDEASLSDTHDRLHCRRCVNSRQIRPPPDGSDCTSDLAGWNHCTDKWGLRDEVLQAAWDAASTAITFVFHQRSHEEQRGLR
Procedure: The partial Holliday junction (PX-junction), in which one of the four DNA arms is single-stranded (FIG. 6A), was used as a substrate for the 4-stranded branch migration promoted by RAD54 (Mazina et al., 2007, J. Biol. Chem. 282:21068-80). […] To produce PX-junctions, tailed DNA (Oligo 170, SEQ ID NO:9; Oligo 171, SEQ ID NO:10) (1.45 μM, molecules) was annealed with ^32P-labeled fork DNA (Oligo 71, SEQ ID NO:7; Oligo 169, SEQ ID NO:8) (1.33 μM, molecules) in branch migration buffer containing 25 mM Tris acetate, pH 7.5, 3 mM magnesium acetate, 2 mM ATP, 1 mM dithiothreitol, 100 μg ml^−1 bovine serum albumin, 10 U ml^−1 creatine phosphokinase, 15 mM creatine phosphate for 10 min at 37° C. and then for 10 min at 30° C. Then, branch migration was initiated immediately by addition of the RAD54 (100 nM) to PX-junctions (33 nM, molecules) in branch migration buffer and was carried out at 30° C. […] The DNA products were deproteinized by treatment with stop buffer (1.4% (w/v) SDS, 960 μg ml^−1 proteinase K, 7.5% (w/v) glycerol, 0.015% (w/v) bromphenol blue) for 5 min at 22° C. and analyzed by electrophoresis in 8% (w/v) polyacrylamide gels (29:1) in 1×TBE buffer (89 mM Tris borate, pH 8.3, and 1 mM EDTA) at 22° C. The gels were dried on DE81 chromatography paper (Whatman, Kent, UK) and quantified using a Storm 840 PhosphorImager (Molecular Dynamics, Piscataway, N.J.).

MEF cells = assay: Clonogenic survival assay, MEF; format: cell-based, mouse
Procedure: (§1) Briefly, MEF cells were trypsinized and the appropriate number of cells was replated on 10 cm tissue culture dishes. […] Cells were fixed and stained using staining solution (0.05% crystal violet, 50% methanol in PBS); colonies were counted using an AlphaImager 3400 (Alpha Innotech Inc.). The percent of survival was determined as described (Hall & Giccia, 2005, “Radiobiology for the Radiologist”, 6th Ed., Philadelphia, Pa.: Lippincott Williams & Wilkins, pp. 30-45). The percent of survival obtained from untreated cells was normalized to 100% survival.

Tp53−/− MEF cells = assay: Clonogenic survival assay, Tp53−/− MEF; format: cell-based, mouse
Procedure: as §1

[1] = test system: RAD51 foci in 293 human embryonic kidney (HEK) cells; assay: RAD51 foci formation; format: cell-based
Procedure: 2×10^5 log phase HEK-GFP cells were seeded in 3.5-cm tissue culture plates on glass coverslips pretreated with 0.01% poly-L-lysine (Sigma) and grown overnight. […] Cells were then exposed to 0.5 Gy IR using a Primus Linear Accelerator (Siemens) at […], 3 Gy/min followed by a 2-h incubation at 37° C. Cells were washed with phosphate-buffered saline (PBS) (8.1 mM Na2HPO4, 1.47 mM KH2PO4, 138 mM NaCl and 2.7 mM KCl, pH 7.4), extracted with PBS containing 0.2% Triton X-100 and 1 mM phenylmethanesulfonylfluoride (PMSF) for 5 min at 4° C., and fixed with PBS supplemented with 3.0% formaldehyde and 2.0% sucrose for 10 min. Cells were permeabilized with PBS containing 0.5% Triton X-100 for 5 min and blocked with PBS containing 3% BSA and 0.05% Tween 20 for 30 min at 23° C. Cells were treated with the polyclonal rabbit RAD51 antibodies (1:500 dilution) (a gift from Dr. Golub, Yale University) in PBS containing 3% BSA and 0.05% Triton X-100 overnight at 4° C., and then with Alexa Fluor 488 donkey antirabbit IgG (H+L) antibodies (1:1000 dilution) (Invitrogen) for 1 h at 23° C. followed by a 5-min staining with 500 ng/ml 4′,6-diamidino-2-phenylindole (DAPI) in PBS containing 0.05% Tween 20. Samples were washed in PBS containing 0.05% Tween 20, mounted in VectaShield™ (Vector Laboratories), and sealed with nail polish. The fluorescence images were obtained using an Olympus IX70 inverted microscope and iVision-Mac™ software (BioVision).

O=c1c2ccccc2nc(/C=C/c2cccnc2)n1Cc1ccccc1 [Compound B02, (E)-3-benzyl-2-(2-(pyridin-3-yl)vinyl)quinazolin-4(3H)-one]
inhibition of RAD54 branch migration, in words (RAD54): not to significantly inhibit
sensitivity to cisDDP (cisplatin) and MMC (MEF cells; B02 5 μM): more sensitive
sensitivity to MMS (MEF cells; B02 5 μM co-treatment with MMS): enhancement of sensitivity
sensitivity to MMS (MEF cells; B02 5 μM plus AZD2281 1 μM versus AZD2281 only): more sensitive
increase in sensitivity to MMC (MEF cells; B02 5 μM, MMC 1 μM): fivefold
increase in sensitivity to cisplatin (MEF cells; B02 5 μM, cisplatin 32 μM): approximately 17 fold
cellular viability, B02 alone (MEF cells; up to 5 μM, wild type MEF): No decrease of cellular viability; also recorded: did not have a substantial effect
sensitivity to cisDDP (cisplatin) and MMC (Tp53−/− MEF cells; B02 5 μM): more sensitive; also recorded: increased
cellular viability, B02 alone (Tp53−/− MEF cells; up to 5 μM, Tp53−/− MEF): No decrease of cellular viability; also recorded: did not have a substantial effect
inhibition of IR-induced RAD51 foci formation, in words ([1]; B02 20 μM): inhibitory effect was smaller
decrease of average number of RAD51 foci per nucleus ([1]; B02 50 μM): 4.4 fold
decrease of fraction of cells with RAD51 foci ([1]; B02 50 μM): 3.8 fold
fraction of cells with RAD51 foci (≧1 focus) ([1]; B02 50 μM, 0.5 Gy IR, without B02 72±10%): 19±6%
average number of RAD51 foci per nucleus ([1]; B02 50 μM, without B02 53±11): 12±4
